Consider eight compounds from PMC4454357 (Archives of biochemistry and biophysics, 2015).

In data set [1] the target is T1, AhR (Rattus norvegicus, UniProt P41738).
T1 sequence (P41738 10-853): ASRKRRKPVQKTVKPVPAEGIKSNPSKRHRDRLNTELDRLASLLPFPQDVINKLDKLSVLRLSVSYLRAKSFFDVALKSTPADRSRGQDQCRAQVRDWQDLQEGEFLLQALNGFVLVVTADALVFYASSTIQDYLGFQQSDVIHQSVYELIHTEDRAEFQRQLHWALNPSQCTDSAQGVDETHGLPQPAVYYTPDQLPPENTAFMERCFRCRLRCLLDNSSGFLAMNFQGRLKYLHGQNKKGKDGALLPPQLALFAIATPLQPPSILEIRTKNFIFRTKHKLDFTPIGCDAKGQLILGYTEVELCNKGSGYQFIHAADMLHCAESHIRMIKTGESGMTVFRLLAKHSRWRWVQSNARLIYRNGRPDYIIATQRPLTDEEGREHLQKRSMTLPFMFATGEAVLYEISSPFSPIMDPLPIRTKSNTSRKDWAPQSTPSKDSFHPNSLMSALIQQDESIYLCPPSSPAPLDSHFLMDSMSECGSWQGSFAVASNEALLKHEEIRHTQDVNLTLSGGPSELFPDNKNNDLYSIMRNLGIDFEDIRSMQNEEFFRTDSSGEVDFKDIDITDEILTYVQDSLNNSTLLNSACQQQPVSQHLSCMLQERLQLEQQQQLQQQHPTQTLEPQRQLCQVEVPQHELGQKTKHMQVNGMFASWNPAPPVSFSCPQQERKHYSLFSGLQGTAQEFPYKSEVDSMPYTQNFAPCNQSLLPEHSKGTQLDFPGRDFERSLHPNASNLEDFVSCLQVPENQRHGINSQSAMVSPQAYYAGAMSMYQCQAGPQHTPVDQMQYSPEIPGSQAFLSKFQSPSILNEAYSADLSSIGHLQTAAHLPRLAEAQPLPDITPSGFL
As to the kind of experiment: AhR-dependent luciferase reporter gene assay, rat hepatoma H4L7.5c2. On the technique in general: Reporter assays use an easily measured gene product as a stand-in for the process of interest.

The target in data set [2] is T2, AhR (Cavia porcellus, UniProt Q6J287).
T2 sequence (Q6J287 1-846): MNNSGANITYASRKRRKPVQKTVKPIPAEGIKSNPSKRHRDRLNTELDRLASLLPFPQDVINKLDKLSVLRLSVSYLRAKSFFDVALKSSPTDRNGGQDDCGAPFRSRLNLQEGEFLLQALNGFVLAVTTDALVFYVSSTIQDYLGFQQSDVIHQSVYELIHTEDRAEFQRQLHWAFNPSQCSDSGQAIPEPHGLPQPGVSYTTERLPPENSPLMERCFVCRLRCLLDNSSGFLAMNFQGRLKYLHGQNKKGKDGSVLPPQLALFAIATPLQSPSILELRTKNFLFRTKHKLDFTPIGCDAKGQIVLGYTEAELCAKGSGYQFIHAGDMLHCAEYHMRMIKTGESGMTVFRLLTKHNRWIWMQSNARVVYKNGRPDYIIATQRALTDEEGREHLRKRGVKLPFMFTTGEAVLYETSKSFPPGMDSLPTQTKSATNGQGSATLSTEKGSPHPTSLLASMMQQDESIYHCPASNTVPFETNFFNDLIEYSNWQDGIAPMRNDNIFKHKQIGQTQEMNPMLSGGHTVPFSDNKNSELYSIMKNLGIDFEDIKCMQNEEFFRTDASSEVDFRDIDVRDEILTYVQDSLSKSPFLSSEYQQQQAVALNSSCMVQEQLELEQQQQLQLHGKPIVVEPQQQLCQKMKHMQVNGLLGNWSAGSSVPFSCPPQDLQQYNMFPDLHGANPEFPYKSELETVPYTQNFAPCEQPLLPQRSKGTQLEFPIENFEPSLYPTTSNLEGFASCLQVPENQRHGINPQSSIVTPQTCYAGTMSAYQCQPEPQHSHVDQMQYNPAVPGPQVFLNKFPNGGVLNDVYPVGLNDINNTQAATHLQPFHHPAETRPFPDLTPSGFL

Data set [3] has as its target T3, AhR (Homo sapiens, UniProt P35869).
T3 sequence (P35869 11-848): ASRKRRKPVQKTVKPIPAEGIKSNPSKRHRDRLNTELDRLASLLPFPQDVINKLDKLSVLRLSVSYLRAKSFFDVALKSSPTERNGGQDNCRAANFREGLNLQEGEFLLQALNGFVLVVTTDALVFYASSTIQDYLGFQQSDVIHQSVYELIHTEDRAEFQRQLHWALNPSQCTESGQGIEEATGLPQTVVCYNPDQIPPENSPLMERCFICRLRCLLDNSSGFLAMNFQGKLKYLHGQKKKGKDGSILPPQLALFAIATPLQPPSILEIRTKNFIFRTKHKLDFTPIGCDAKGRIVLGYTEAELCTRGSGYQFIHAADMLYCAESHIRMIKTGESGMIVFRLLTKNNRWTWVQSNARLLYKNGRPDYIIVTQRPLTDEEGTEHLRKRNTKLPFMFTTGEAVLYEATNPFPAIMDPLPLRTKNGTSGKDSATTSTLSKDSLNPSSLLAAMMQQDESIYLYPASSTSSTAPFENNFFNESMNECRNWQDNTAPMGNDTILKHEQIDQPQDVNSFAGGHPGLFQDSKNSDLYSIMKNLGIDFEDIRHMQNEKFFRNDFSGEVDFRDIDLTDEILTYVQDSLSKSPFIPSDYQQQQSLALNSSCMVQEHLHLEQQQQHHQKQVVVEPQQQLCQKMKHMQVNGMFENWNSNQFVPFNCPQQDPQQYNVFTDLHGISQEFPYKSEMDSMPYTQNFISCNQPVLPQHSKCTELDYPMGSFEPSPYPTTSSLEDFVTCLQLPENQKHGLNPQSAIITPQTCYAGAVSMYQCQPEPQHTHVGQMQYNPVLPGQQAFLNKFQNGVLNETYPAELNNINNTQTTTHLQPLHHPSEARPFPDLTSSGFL

Data set [4] has as its target T1, AhR.
Data set [5] addresses T2, AhR. This is another data set of the same source.
Data set [6] has as its target T3, AhR. As to the kind of experiment: AhR-dependent luciferase reporter gene assay, human hepatoma HG2L7.5c1. Particulars: for difference in relative potency among the cell lines studied: human, mouse, rat and guinea pig cell lines compared.
In data set [7] the target is AhR (Mus musculus, UniProt P30561). Put plainly: AhR-dependent luciferase reporter gene assay, mouse hepatoma H1L7.5c3. To be noted: mouse cell line.
AhR (Mus musculus, UniProt P30561), sequence (P30561 10-848): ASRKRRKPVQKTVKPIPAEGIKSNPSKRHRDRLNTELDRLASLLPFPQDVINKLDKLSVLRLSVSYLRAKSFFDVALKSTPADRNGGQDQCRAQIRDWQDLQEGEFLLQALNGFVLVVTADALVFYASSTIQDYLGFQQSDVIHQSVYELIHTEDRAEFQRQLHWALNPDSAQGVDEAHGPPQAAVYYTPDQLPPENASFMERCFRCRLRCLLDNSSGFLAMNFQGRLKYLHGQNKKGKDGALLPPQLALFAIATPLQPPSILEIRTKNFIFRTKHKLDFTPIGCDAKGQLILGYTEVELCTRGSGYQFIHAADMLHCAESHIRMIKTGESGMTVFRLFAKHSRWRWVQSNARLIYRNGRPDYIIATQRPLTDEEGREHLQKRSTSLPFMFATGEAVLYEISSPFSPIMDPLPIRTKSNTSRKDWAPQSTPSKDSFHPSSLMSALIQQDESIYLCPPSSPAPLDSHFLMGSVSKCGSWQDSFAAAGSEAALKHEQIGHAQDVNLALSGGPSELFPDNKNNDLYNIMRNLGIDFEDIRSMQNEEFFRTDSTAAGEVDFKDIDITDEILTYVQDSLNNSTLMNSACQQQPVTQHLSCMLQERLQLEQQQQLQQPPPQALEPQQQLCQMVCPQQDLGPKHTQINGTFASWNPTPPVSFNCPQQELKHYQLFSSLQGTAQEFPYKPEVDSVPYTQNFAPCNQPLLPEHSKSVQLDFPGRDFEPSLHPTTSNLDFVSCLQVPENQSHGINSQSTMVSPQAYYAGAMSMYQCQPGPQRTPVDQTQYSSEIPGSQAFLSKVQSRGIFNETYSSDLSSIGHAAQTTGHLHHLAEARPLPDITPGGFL
Data set [8] relates to AhR. The data set is described as above. Particulars: EC50 mouse versus rat cell lines.
Data set [9] addresses T4, guinea pig hepatic cytosolic AhR (Cavia porcellus, UniProt Q6J287).
T4 sequence (Q6J287 1-846): T2 sequence (Q6J287 1-846)
As to the kind of experiment: [3H]TCDD competitive ligand binding, hydroxyapatite binding assay. To be noted: 2 nM [3H]TCDD, 1 h, room temperature, guinea pig hepatic cytosol.

Where [10] appears, read: read-out: Relative potency (EC50) as activators of AhR-dependent reporter gene expression, Human cell line HG2L7.5c1, 6 h, mean of triplicate concentration response analysis.

Like-named read-outs stand apart in the source and are kept apart here.

In the case of `O=Cc1c2[nH]c3ccccc3c2cc2[nH]c3ccccc3c12` [FICZ, 6-formyl-indolo[3,2-b]carbazole], on AhR [1], the EC50 – broadly, the concentration that produces a half-maximal response – is 0.078 nM.

In the case of `O=C1Nc2ccccc2/C1=C1/Nc2ccccc2C1=O` [Indirubin, indirubin], the figures for the EC50 on AhR [1] and on AhR [2] were 0.94 nM and 0.95 nM, respectively.

Turning to `O=Cc1c(Cc2c[nH]c3ccccc23)[nH]c2ccccc12` [Malassezin, malassezin], the EC50 was 11.1 nM on AhR [3], 56 nM at AhR [4] and 276 nM on AhR [5]. For the same compound, the “relative inducing potency difference between the human and mouse cell lines” value at AhR [6] (EC50 human versus mouse hepatoma cells) was ~ 26 fold.

`O=C(c1c[nH]c2ccccc12)c1nccc2c1[nH]c1ccccc12` [Pityriacitrin, pityriacitrin]: the EC50 was determined as 4.9 nM at AhR [3], 4.3 nM on AhR [4] and 4.3 nM on AhR [5]. The “difference in relative potency among the cell lines studied” value at AhR [6] was “lowest degree of difference”.

For the compound `Clc1cc2c(cc1Cl)Oc1cc(Cl)c(Cl)cc1O2` [TCDD, 2,3,7,8-tetrachlorodibenzo-p-dioxin, reference compound], the EC50 stood at 0.1 nM at AhR [1], 0.53 nM at AhR [6] and 0.1 nM at AhR [2].

As for `O=C1c2ccccc2-n2c1nc1ccccc1c2=O` [Tryptanthrin, tryptanthrin], the concentration giving a half-maximal response (EC50) at AhR [1] turned out to be 946 nM; on AhR [2], 181 nM.

Turning to indolo[3,2-b]carbazole [ICZ], the EC50 at AhR [7] amounted to 0.009 nM; at AhR [6] (setting [10]) it was 0.6 nM. In the data set on AhR [8], the “difference in EC50 between the mouse and rat cell lines” value is ~ 109 fold.

On to pityriazepin, for which, in data set [9], the “displacement of [3H]TCDD” value was “displaced [^3H]TCDD from guinea pig hepatic cytosol in a concentration-dependent manner”. Further, the “difference in relative potency among the cell lines studied” value at AhR [6] was “lowest degree of difference”. Moreover, the EC50 at AhR [6] (setting [10]) turned out to be 5 nM.
